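Each compound was tested at five concentrations against cells in 96-well plates for 48 hours. Abbreviation: GI50, concentration required for 50% inhibition of growth. TGI: concentration producing complete growth inhibition.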
What was measured:
Test in all cases: growth of human tumour cells (NCI), 48 h
786-0 renal = test system: 786-0 renal
A498 renal = test system: A498 renal
A549 NSCLC = test system: A549 NSCLC
ACHN renal = test system: ACHN renal
BT-549 breast = test system: BT-549 breast
CAKI-1 renal = test system: CAKI-1 renal
CCRF-CEM leukemia = test system: CCRF-CEM leukemia
COLO 205 colon = test system: COLO 205 colon
DU-145 prostate = test system: DU-145 prostate
EKVX NSCLC = test system: EKVX NSCLC
HCC-2998 colon = test system: HCC-2998 colon
HCT-116 colon = test system: HCT-116 colon
HCT-15 colon = test system: HCT-15 colon
HL-60(TB) leukemia = test system: HL-60(TB) leukemia
HOP-62 NSCLC = test system: HOP-62 NSCLC
HOP-92 NSCLC = test system: HOP-92 NSCLC
HS 578T breast = test system: HS 578T breast
HT29 colon = test system: HT29 colon
IGROV1 ovarian = test system: IGROV1 ovarian
K-562 leukemia = test system: K-562 leukemia
KM12 colon = test system: KM12 colon
LOX IMVI melanoma = test system: LOX IMVI melanoma
M14 melanoma = test system: M14 melanoma
MALME-3M melanoma = test system: MALME-3M melanoma
MCF7 breast = test system: MCF7 breast
MDA-MB-435 = test system: MDA-MB-435
MDA-MB-468 breast = test system: MDA-MB-468 breast
MOLT-4 leukemia = test system: MOLT-4 leukemia
NCI-H226 lung = test system: NCI-H226 lung
NCI-H23 lung = test system: NCI-H23 lung
NCI-H460 lung = test system: NCI-H460 lung
NCI-H522 lung = test system: NCI-H522 lung
NCI/ADR-RES ovarian = test system: NCI/ADR-RES ovarian
OVCAR-3 ovarian = test system: OVCAR-3 ovarian
OVCAR-4 ovarian = test system: OVCAR-4 ovarian
OVCAR-5 ovarian = test system: OVCAR-5 ovarian
OVCAR-8 ovarian = test system: OVCAR-8 ovarian
PC-3 prostate = test system: PC-3 prostate
RPMI-8226 leukemia = test system: RPMI-8226 leukemia
RXF 393 renal = test system: RXF 393 renal
SF-268 CNS = test system: SF-268 CNS
SF-295 CNS = test system: SF-295 CNS
SF-539 CNS = test system: SF-539 CNS
SK-MEL-28 melanoma = test system: SK-MEL-28 melanoma
SK-MEL-5 melanoma = test system: SK-MEL-5 melanoma
SK-OV-3 ovarian = test system: SK-OV-3 ovarian
SN12C renal = test system: SN12C renal
SNB-19 CNS = test system: SNB-19 CNS
SR leukemia = test system: SR leukemia
SW-620 colon = test system: SW-620 colon
T-47D breast = test system: T-47D breast
TK-10 renal = test system: TK-10 renal
U251 CNS = test system: U251 CNS
UACC-257 melanoma = test system: UACC-257 melanoma
UACC-62 melanoma = test system: UACC-62 melanoma

SMILES: O=C1NC(=S)/C(=C/c2cn(-c3ccccc3)nc2-c2ccccc2)S1
- GI50 (786-0 renal): 4.79 µM
- TGI (786-0 renal): > 100 µM
- GI50 (A498 renal): 5.6 µM
- TGI (A498 renal): 41.3 µM
- GI50 (A549 NSCLC): 6.74 µM
- TGI (A549 NSCLC): > 100 µM
- GI50 (ACHN renal): 8.33 µM
- TGI (ACHN renal): > 100 µM
- GI50 (BT-549 breast): 2.65 µM
- TGI (BT-549 breast): 11.3 µM
- GI50 (CAKI-1 renal): 9.4 µM
- TGI (CAKI-1 renal): > 100 µM
- GI50 (CCRF-CEM leukemia): 4.35 µM
- TGI (CCRF-CEM leukemia): > 100 µM
- GI50 (COLO 205 colon): 11.9 µM
- TGI (COLO 205 colon): 32 µM
- GI50 (DU-145 prostate): 9.48 µM
- TGI (DU-145 prostate): > 100 µM
- GI50 (EKVX NSCLC): 4.1 µM
- TGI (EKVX NSCLC): > 100 µM
- GI50 (HCC-2998 colon): 10.6 µM
- TGI (HCC-2998 colon): 44.6 µM
- GI50 (HCT-116 colon): 5.57 µM
- TGI (HCT-116 colon): > 100 µM
- GI50 (HCT-15 colon): 4.29 µM
- TGI (HCT-15 colon): 33.8 µM
- GI50 (HL-60(TB) leukemia): 3.94 µM
- TGI (HL-60(TB) leukemia): 36.6 µM
- GI50 (HOP-62 NSCLC): 22.8 µM
- TGI (HOP-62 NSCLC): > 100 µM
- GI50 (HOP-92 NSCLC): 2.3 µM
- TGI (HOP-92 NSCLC): 9.73 µM
- GI50 (HS 578T breast): 5.73 µM
- TGI (HS 578T breast): 91.6 µM
- GI50 (HT29 colon): 9.99 µM
- TGI (HT29 colon): 37.1 µM
- GI50 (IGROV1 ovarian): 6.46 µM
- TGI (IGROV1 ovarian): 45.2 µM
- GI50 (K-562 leukemia): 5.38 µM
- TGI (K-562 leukemia): > 100 µM
- GI50 (KM12 colon): 5.8 µM
- TGI (KM12 colon): 40.2 µM
- GI50 (LOX IMVI melanoma): 13.4 µM
- TGI (LOX IMVI melanoma): > 100 µM
- GI50 (M14 melanoma): 4.82 µM
- TGI (M14 melanoma): > 100 µM
- GI50 (MALME-3M melanoma): 4.85 µM
- TGI (MALME-3M melanoma): 35.8 µM
- GI50 (MCF7 breast): 4.03 µM
- TGI (MCF7 breast): > 100 µM
- GI50 (MDA-MB-435): 5.49 µM
- TGI (MDA-MB-435): > 100 µM
- GI50 (MDA-MB-468 breast): 3.13 µM
- TGI (MDA-MB-468 breast): 21.8 µM
- GI50 (MOLT-4 leukemia): 3.91 µM
- TGI (MOLT-4 leukemia): 34.4 µM
- GI50 (NCI-H226 lung): 13.4 µM
- TGI (NCI-H226 lung): > 100 µM
- GI50 (NCI-H23 lung): 4.86 µM
- TGI (NCI-H23 lung): 51.6 µM
- GI50 (NCI-H460 lung): 4.89 µM
- TGI (NCI-H460 lung): 26.2 µM
- GI50 (NCI-H522 lung): 4.39 µM
- TGI (NCI-H522 lung): 19.3 µM
- GI50 (NCI/ADR-RES ovarian): 7.3 µM
- TGI (NCI/ADR-RES ovarian): > 100 µM
- GI50 (OVCAR-3 ovarian): 7.1 µM
- TGI (OVCAR-3 ovarian): 27.1 µM
- GI50 (OVCAR-4 ovarian): 5.24 µM
- TGI (OVCAR-4 ovarian): > 100 µM
- GI50 (OVCAR-5 ovarian): 22 µM
- TGI (OVCAR-5 ovarian): > 100 µM
- GI50 (OVCAR-8 ovarian): 16.1 µM
- TGI (OVCAR-8 ovarian): 80.8 µM
- GI50 (PC-3 prostate): 5.76 µM
- TGI (PC-3 prostate): > 100 µM
- GI50 (RPMI-8226 leukemia): 3.57 µM
- TGI (RPMI-8226 leukemia): 94.7 µM
- GI50 (RXF 393 renal): 17.1 µM
- TGI (RXF 393 renal): 71.6 µM
- GI50 (SF-268 CNS): 6.07 µM
- TGI (SF-268 CNS): > 100 µM
- GI50 (SF-295 CNS): 8.61 µM
- TGI (SF-295 CNS): 32.7 µM
- GI50 (SF-539 CNS): 6.5 µM
- TGI (SF-539 CNS): 21.8 µM
- GI50 (SK-MEL-28 melanoma): 5.31 µM
- TGI (SK-MEL-28 melanoma): > 100 µM
- GI50 (SK-MEL-5 melanoma): 2.59 µM
- TGI (SK-MEL-5 melanoma): 7.45 µM
- GI50 (SK-OV-3 ovarian): 6.82 µM
- TGI (SK-OV-3 ovarian): 81.2 µM
- GI50 (SN12C renal): 4.73 µM
- TGI (SN12C renal): > 100 µM
- GI50 (SNB-19 CNS): 4.91 µM
- TGI (SNB-19 CNS): > 100 µM
- GI50 (SR leukemia): 6.65 µM
- TGI (SR leukemia): 32.3 µM
- GI50 (SW-620 colon): 9.67 µM
- TGI (SW-620 colon): > 100 µM
- GI50 (T-47D breast): 4.41 µM
- TGI (T-47D breast): > 100 µM
- GI50 (TK-10 renal): 12.5 µM
- TGI (TK-10 renal): > 100 µM
- GI50 (U251 CNS): 7.49 µM
- TGI (U251 CNS): > 100 µM
- GI50 (UACC-257 melanoma): 6.36 µM
- TGI (UACC-257 melanoma): > 100 µM
- GI50 (UACC-62 melanoma): 3.49 µM
- TGI (UACC-62 melanoma): 15.3 µM

Reference: PubChem BioAssay (NCI)
